Results on seven molecules are retold here after doi:10.1101/2020.04.22.021360v1 (biorxiv, 2020).

The target of experiment [1] is T1, PDE2 (cGMP-dependent 3',5'-cyclic phosphodiesterase; PDE2A) (Homo sapiens, UniProt O00408). The experiment can be described thus: MicroScale Thermophoresis, 12-concentration dilution. Format: binding. A general note: Microscale thermophoresis detects binding through changes in fluorescence in a small temperature gradient.
Experiment [2] concerns the target T1, PDE2 (cGMP-dependent 3',5'-cyclic phosphodiesterase; PDE2A). The experiment can be described thus: biochemical.

A value given as a limit tells only on which side of the number the result lay.

T1 sequence (O00408 2-941): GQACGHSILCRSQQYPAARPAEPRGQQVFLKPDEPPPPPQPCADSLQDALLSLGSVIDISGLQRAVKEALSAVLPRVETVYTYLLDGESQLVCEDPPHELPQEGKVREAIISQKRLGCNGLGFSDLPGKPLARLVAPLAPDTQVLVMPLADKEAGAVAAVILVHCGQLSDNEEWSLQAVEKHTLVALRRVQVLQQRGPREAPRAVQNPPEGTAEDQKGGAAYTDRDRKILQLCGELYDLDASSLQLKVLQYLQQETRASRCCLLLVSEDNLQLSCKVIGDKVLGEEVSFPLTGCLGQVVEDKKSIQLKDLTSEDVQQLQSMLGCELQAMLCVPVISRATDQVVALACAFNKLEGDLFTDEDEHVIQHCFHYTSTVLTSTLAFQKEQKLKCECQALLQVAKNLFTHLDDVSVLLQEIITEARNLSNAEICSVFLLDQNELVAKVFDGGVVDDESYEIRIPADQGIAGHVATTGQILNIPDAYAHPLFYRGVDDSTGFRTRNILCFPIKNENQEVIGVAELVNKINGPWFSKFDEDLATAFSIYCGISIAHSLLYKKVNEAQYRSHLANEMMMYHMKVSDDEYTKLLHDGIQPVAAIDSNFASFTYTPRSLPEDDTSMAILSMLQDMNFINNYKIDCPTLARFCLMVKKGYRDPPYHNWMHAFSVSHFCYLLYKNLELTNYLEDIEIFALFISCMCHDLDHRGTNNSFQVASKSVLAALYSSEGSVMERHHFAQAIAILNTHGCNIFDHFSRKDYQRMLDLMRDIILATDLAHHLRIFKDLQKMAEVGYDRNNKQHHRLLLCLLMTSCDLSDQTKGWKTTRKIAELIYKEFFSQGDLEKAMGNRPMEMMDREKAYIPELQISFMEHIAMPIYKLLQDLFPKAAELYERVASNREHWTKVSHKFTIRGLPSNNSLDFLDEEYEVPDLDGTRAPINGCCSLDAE

Turning to `Cc1nccc(C(=O)Nc2[nH]ncc2-c2cccc(Cl)c2)n1` [Z973817294], the Kd in experiment [1] was greater than 100 µM.

Consider `CCn1c(=O)c(=O)[nH]c2cc(C(=O)Nc3nc(-c4cccnc4)cs3)ccc21` [Z29458849], for which the Kd turned out to be 24.9 µM in experiment [1] (dye-labelled PDE2, 1:1 fit) and 21.1 µM in experiment [2] (binder).

In the case of `O=C(Nc1ccc(Cl)cc1F)c1ccc(-n2cnc3ccccc32)cc1` [Z87546752], in experiment [1], the Kd is greater than 100 µM.

On to `CSc1nc2ccccc2c(=O)n1-c1ccc(F)cc1F` [Z19056583], for which the Kd in experiment [1] was 10.1 µM; in experiment [2], 9.58 µM. Consider `O=C(O)c1ccc(C=C2Cc3c(O)cccc3C2=O)cc1` [Z217160080], for which the Kd in experiment [1] (read-out: apparent KD, dye-labelled PDE2, weak binder, no KD fit) is greater than 100 µM.

With `CSc1nc(Cl)c(C)c(NCC2CCOC2)n1` (stereo not shown) [Z3216015031], the Kd in experiment [1] was 14.2 µM; in experiment [2], 12.8 µM. Take `CCSc1nc2ccccc2c2nc(C)nn12` [Z226974122]: the Kd in experiment [1] was greater than 100 µM.
